In US20250163150A1, “COMBINATION THERAPIES COMPRISING A KRAS INHIBITOR FOR THE TREATMENT OF CANCER” (I-Mab Biopharma US Limited, priority 2022, published 2025):

Tests used:
KRAS G12D mutant protein = KRAS G12D mutant protein (Homo sapiens, UniProt P01116, G12D); conditions: Wang et al. (2022) J Med Chem; cited from earlier work
[1] = tested on: LS180 human colon adenocarcinoma cells (KRAS G12D); assay: In vitro phagocytosis of LS180 colon cancer cells by macrophages (flow cytometry); format: cell-based; conditions: MRTX1133 100 nM, TJC4 0.5 μg/ml, 24 hours; co-culture 2 hours; combination compared to either agent alone, FIG. 5B
Procedure: LS180 human colon adenocarcinoma cells, which harbor the KRAS G12D mutation were incubated with (a) DMSO, (b) the KRAS G12D inhibitor MRTX1133 (100 nM), (c) anti-CD47 antibody TJC4 (0.5 μg/ml), or (d) MRTX1133 (100 nM)+TJC4 (0.5 μg/ml) for 24 hours and then labeled with 2.5 μM carboxyfluorescein succinimidyl ester (CFSE) for 10 minutes at 37° C. Macrophage cells, which were obtained by human THP-1 leukemia monocyte cells with lipopolysaccharide (LPS) for 24 hours, were cultured in a serum free medium for 2 hours and then added to 2×10^5 CFSE-labeled LS180 cells. The macrophages and the LS180 cells were co-cultured at 37° C. for 2 hours. Macrophages were then stained with an APC-labeled anti-F4/80 antibody, and CFSE+ F4/80+ cells were detected by flow cytometry (10,000 cells analyzed in each sample). The percentage of macrophage-phagocytosed LS180 cells was calculated by dividing the number of CFSE+ F4/80+ cells (see the top right quadrant, i.e., Q2, of each flow cytometry histogram in FIG. 5A) by the number CFSE+ cells (see the top left and right quadrants, i.e., Q1 and Q2, respectively) of each flow cytometry histogram in FIG. 5A). In other words, macrophage-phagocytosed LS180 cells (%)=[Q2/(Q1+Q2)]×100%.

[2] = tested on: human LS180 colon adenocarcinoma tumor xenografts; assay: In vivo anti-tumor efficacy in mice bearing LS180 colon adenocarcinoma xenografts (bioluminescence imaging); set-up: species or system BALB/c nude mice; conditions: MRTX1133 20 mg/kg, TJC4 1 mg/kg, intraperitoneally twice a week for four weeks, FIG. 7B
Procedure: The anti-tumor efficacy of anti-CD47 antibody TJC4 in combination with the KRAS G12D inhibitor MRTZ1133 was assessed in mice bearing human LS180 colon adenocarcinoma tumor xenografts. Briefly, 5×10^5 LS180 cells were injected into the cecal walls of BALB/c nude mice. Tumors formed and grew stably after 2 weeks. Mice were given one of the following treatments for four weeks: (a) PBS (control); (b) TJC4 (1 mg/kg, intraperitoneally twice a week); (c) MRTX1133 (20 mg/kg, intraperitoneally twice a week); or (d) MRTX1133 (20 mg/kg, intraperitoneally twice a week)+TJC4 (1 mg/kg, intraperitoneally twice a week). Tumor growth was evaluated by Bioluminescence imaging (BLI) every week.

[3] = tested on: LS180 human colon adenocarcinoma cells; assay: Apoptosis of LS180 cells (FITC-Annexin V / PI flow cytometry); format: cell-based; conditions: MRTX1133 100 nM, TJC4 0.5 μg/ml, 24 hours; combination compared to either agent alone, FIG. 6A/6B
Procedure: LS180 human colon adenocarcinoma cells were incubated with (a) DMSO, (b) the KRAS G12D inhibitor MRTX1133 (100 nM), (c) anti-CD47 antibody TJC4 (0.5 μg/ml), or (d) MRTX1133 (100 nM)+TJC4 (0.5 μg/ml) for 24 hours and then labeled with fluorescein isothiocyanate (FITC)-Annexin V and propidium iodide (PI). Annexin V (or Annexin A5) is a member of the annexin family of intracellular proteins that binds to phosphatidylserine (PS) in a calcium-dependent manner. PS is normally only found on the intracellular leaflet of the plasma membrane in healthy cells, but during early apoptosis, membrane asymmetry is lost, and PS translocates to the external leaflet. FITC-labeled Annexin V can then be used to specifically target and identify apoptotic cells. PI a cell impermeable nucleic acid intercalating dye. Following staining, the cells were analyzed via flow cytometry.

[4] = tested on: NCI-H358 human NSCLC tumor cells (KRAS G12C); assay: In vitro phagocytosis of NCI-H358 tumor cells by M0 macrophages (IncuCyte pHrodo); format: cell-based; conditions: AMG 510 pre-treatment 0.1, 1 or 10 μm 24 hours, then M0 macrophage 1:1 and 1 μg/ml TJC4 3-6 hours, FIG. 4A-4C
Procedure: The following experiments were performed to assess the effects of anti-CD47 antibody TJC4 in combination with the KRAS G12C inhibitor AMG-510 on the in vitro phagocytosis of NCI-H358 human NSCLC tumor cells. As discussed in Example 1, NCI-H358 cells bear the KRAS G12C mutation. The in vitro phagocytosis assays were performed by co-culturing M0 macrophage cells with INCUCYTE® PHRODO®-labeled NCI-H358 tumor cells. Briefly, prior to co-culture, NCI-H358 cells were pre-treated with AMG 510 at the concentrations of 0 μm, 0.1 μm, 1 μm, or 10 μm for 24 hours. The NCI-H358 cells were further incubated with M0 macrophage (at a ratio of 1:1) and 1 μg/ml TJC4 for 3-6 hours. The NCI-H358 cells were then subject to INCUCYTE® ZOOM Live-Cell Imaging System analysis, and the percentage of phagocytosed NCI-H358 was calculated.
Synergy of the combination of AMG 510 and TJC4 in inducing phagocytosis was calculated as: […]
An F value≥1.00 indicates a synergistic effect between AMG-510 and TJC4.

[5] = tested on: human NCI-H358 non-small cell lung cancer (NSCLC) tumor xenografts (KRAS G12C); assay: In vivo anti-tumor efficacy in mice bearing NCI-H358 NSCLC tumor xenografts; set-up: species or system CB17 SCID mice; conditions: 1 mg/kg QD (AMG-510 p.o., TJC4 i.p.), tumor size over 15 days, FIG. 1
Procedure: The anti-tumor efficacy of anti-CD47 antibody TJC4 in combination with the KRAS G12C inhibitor AMG-510 was assessed in mice bearing human NCI-H358 non-small cell lung cancer (NSCLC) tumor xenografts. The NCI-H358 cell line, which was established from a chemotherapy-naïve NSCLC tumor, harbors a KRAS G12C mutation. TJC4 is an exemplary anti-CD47 antibody that comprises a VH that comprises SEQ ID NO: 1, a VL that comprises SEQ ID NO: 2, and a human IgG4 Fe region that comprises an S228P substitution (EU numbering). AMG-510 is also known as Sotorasib. KRAS G12C mutations, which are common in NSCLC, lead to constitutive activation of the tumor growth-promoting RAS/MAPK signaling pathway. […]
Each animal's tumor size was measured three times per week for 15 days. Tumor size was calculated as V=0.5L×W^2, where L and W indicate long and short diameters of the tumor, respectively. Anti-tumor efficacy of the drugs was also analyzed by TGI % (percentage of tumor growth inhibition). TGI % was calculated as: […]
where TRTV is treatment group RTV, and CRTV is control group RTV. RTV=VN/V1, where V1 is the mean tumor volume measured on Day 1 of administration, and VN is the mean tumor volume measured on Day N of administration.
The synergy of the combination of TJC4 and AMG-510 was calculated as: […]

Molecule	specificity to the KRAS G12D mutant protein relative to wild-type KRAS (KRAS G12D mutant protein)	phagocytosis of LS180 cells by macrophages [1]	tumor growth (bioluminescence imaging) [2]	apoptosis of LS180 cells [3]	TJC4-mediated phagocytosis of NCI-H358 by macrophages [4]	tumor growth inhibition as compared to mice treated with PBS control [5]
C#Cc1c(F)ccc2cc(O)cc(-c3ncc4c(N5CC6CCC(C5)N6)nc(OC[C@@]56CCCN5C[C@H](F)C6)nc4c3F)c12 [MRTX1133]	more than 1000 times	increased	inhibited tumor growth	increased		
C=CC(=O)N1CCN(c2nc(=O)n(-c3c(C)ccnc3C(C)C)c3nc(-c4c(O)cccc4F)c(F)cc23)[C@@H](C)C1 [AMG-510, 6-Fluoro-7-(2-fluoro-6-hydroxyphenyl)-(1M)-1-[4-methyl-2-(propan-2-yl)pyridin-3-yl]-4-[(2S)-2-methyl-4-(prop-2-enoyl)piperazin-1-yl]pyrido[2,3-d]pyrimidin-2(1H)-one]					enhanced	did not demonstrate tumor growth inhibition
TJC4: anti-CD47 antibody with VH SEQ ID NO: 1, VL SEQ ID NO: 2 and human IgG4 Fc region comprising S228P substitution (antibody, V domains shown, human IgG4 Fc with S228P, no entry) VH: EVQLVESGGGLVKPGGSLRLSCAASGLTFERAWMNWVRQAPGKGLEWVGRIKRKTDGETTDYAAPVKGRFSISRDDSKNTLYLQMNSLKTEDTAVYYCAGSNRAFDIWGQGTMVTVSS VL: DIVMTQSPDSLAVSLGERATINCKSSQSVLYAGNNRNYLAWYQQKPGQPPKLLINQASTRASGVPDRFSGSGSGTEFTLIISSLQAEDVAIYYCQQYYTPPLAFGGGTKLEIK		increased	weak inhibitory effect	increased		did not demonstrate tumor growth inhibition
